This is an account of results in patent US8901118B2, “Compounds and methods for kinase modulation, and indications therefor” (Plexxikon Inc., priority 2010, dated 2014).

Assay [1] addresses CYP2D6 (Homo sapiens, UniProt P10635). The experiment in a line: CYP2D6 inhibition (fluorescent substrate AMMC). In kind it is in vitro ADME. To be noted: read-out: Cyp IC50 2D6. The method in brief:
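Test compound titrated 1:1 across ten concentrations; metabolite fluorescence measured after 37 °C incubation of 15 min (CYP1A2), 30 min (CYP2C19, CYP2D6) or 45 min (CYP2C9). IC50 from signal versus concentration.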

For assay [2], the target named is TrkA kinase (Homo sapiens, UniProt P04629). The experiment in a line: TrkA kinase biochemical activity assay (AlphaScreen). To be noted: 100 μM ATP; read-out: Biochemical Inhibition IC50 TrkA. The method, boiled down: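 IC50 values come from AlphaScreen PY20/streptavidin bead signal versus compound concentration. Kinase reaction: 1 ng/well TrkA, 100 μM ATP, 30 nM biotin-(E4Y)10 substrate, Mn2+-containing Hepes buffer pH 7.5, 5% DMSO, 40 min, room temperature; TrkC assayed by the same approach.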
For orientation: Alpha assays give light when donor and acceptor beads are brought close together.

Sequence of TrkA kinase (P04629 33-796): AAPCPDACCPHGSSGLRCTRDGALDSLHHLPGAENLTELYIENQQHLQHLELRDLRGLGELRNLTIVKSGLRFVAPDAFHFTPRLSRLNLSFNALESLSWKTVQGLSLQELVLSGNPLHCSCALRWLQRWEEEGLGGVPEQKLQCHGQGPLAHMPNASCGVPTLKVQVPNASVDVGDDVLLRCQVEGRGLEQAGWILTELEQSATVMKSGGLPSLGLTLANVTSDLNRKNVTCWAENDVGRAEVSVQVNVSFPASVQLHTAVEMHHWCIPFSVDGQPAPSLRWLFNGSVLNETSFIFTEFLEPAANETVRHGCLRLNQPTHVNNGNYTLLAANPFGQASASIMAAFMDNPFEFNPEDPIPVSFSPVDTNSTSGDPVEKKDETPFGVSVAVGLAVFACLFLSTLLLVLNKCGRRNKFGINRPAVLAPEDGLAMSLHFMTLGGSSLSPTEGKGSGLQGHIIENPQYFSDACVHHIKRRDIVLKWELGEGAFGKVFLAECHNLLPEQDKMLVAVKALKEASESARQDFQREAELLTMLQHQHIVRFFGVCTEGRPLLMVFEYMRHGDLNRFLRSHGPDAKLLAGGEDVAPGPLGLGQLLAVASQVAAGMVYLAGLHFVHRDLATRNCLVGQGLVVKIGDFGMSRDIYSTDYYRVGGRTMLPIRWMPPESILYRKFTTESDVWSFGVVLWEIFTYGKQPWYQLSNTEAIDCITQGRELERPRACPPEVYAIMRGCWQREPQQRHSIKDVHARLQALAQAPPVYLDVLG
Sequence of CYP2D6 (P10635 whole entry): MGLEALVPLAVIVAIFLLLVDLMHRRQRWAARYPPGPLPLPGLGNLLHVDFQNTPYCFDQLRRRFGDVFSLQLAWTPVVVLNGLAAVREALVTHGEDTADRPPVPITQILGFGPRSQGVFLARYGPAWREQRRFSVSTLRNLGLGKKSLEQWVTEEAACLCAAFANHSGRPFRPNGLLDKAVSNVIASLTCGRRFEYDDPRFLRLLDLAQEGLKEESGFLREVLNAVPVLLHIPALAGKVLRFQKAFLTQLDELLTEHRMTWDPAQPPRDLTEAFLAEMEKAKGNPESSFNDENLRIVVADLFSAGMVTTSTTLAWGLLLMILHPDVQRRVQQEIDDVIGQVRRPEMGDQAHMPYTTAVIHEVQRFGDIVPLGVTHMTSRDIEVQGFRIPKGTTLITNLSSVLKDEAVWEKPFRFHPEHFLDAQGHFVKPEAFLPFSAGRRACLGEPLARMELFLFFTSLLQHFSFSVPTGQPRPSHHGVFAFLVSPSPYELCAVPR

For the molecule `CCn1cc(Nc2ccc(Cc3c[nH]c4ncnc(OCCOC)c34)c(F)n2)cn1` [Compound P-4014, (1-Ethyl-1H-pyrazol-4-yl)-{6-fluoro-5-[4-(2-methoxy-ethoxy)-7H-pyrrolo[2,3-d]pyrimidin-5-ylmethyl]-pyridin-2-yl}-amine], the results for the IC50 in assay [1] and in assay [2] were below 5 µM and above 1 µM, respectively.
For `COCCOc1ncnc2[nH]cc(Cc3ccc(Nc4ccc(C)nc4)nc3F)c12` [Compound P-4015, {6-Fluoro-5-[4-(2-methoxy-ethoxy)-7H-pyrrolo[2,3-d]pyrimidin-5-ylmethyl]-pyridin-2-yl}-(6-methyl-pyridin-3-yl)-amine], in that order: above 10 µM and above 1 µM.
With `CCc1ccc(Nc2ccc(Cc3c[nH]c4ncnc(OCCOC)c34)c(F)n2)cn1` [Compound P-4016, (6-Ethyl-pyridin-3-yl)-{6-fluoro-5-[4-(2-methoxy-ethoxy)-7H-pyrrolo[2,3-d]pyrimidin-5-ylmethyl]-pyridin-2-yl}-amine], the IC50 in assay [1] was above 10 µM; in assay [2], below 0.01 µM.
For `CCOc1ncnc2[nH]cc(Cc3ccc(Nc4ccc(C)nc4)nc3F)c12` [Compound P-4017, [5-(4-Ethoxy-7H-pyrrolo[2,3-d]pyrimidin-5-ylmethyl)-6-fluoro-pyridin-2-yl]-(6-methyl-pyridin-3-yl)-amine], in that order: above 10 µM and below 0.1 µM.
On the same counts, the results for `CCOc1ncnc2[nH]cc(Cc3ccc(Nc4ccc(OC)nc4)nc3F)c12` [Compound P-4018, [5-(4-Ethoxy-7H-pyrrolo[2,3-d]pyrimidin-5-ylmethyl)-6-fluoro-pyridin-2-yl]-(6-methoxy-pyridin-3-yl)-amine] are above 10 µM and below 0.1 µM.
For `COCCOc1ncnc2[nH]cc(Cc3ccc(Nc4ccc(OC)nc4)nc3F)c12` [Compound P-4019, {6-Fluoro-5-[4-(2-methoxy-ethoxy)-7H-pyrrolo[2,3-d]pyrimidin-5-ylmethyl]-pyridin-2-yl}-(6-methoxy-pyridin-3-yl)-amine], in that order: above 10 µM and below 0.1 µM.
For the molecule `COc1ccc(Nc2ccc(C(=O)c3c[nH]c4ncnc(C5CC5)c34)c(F)n2)cn1` [Compound P-4022, (4-cyclopropyl-7H-pyrrolo[2,3-d]pyrimidin-5-yl)-[2-fluoro-6-(6-methoxy-pyridin-3-ylamino)-pyridin-3-yl]-methanone], the 50% inhibitory concentration (IC50) in assay [1] was 5 to 10 µM; in assay [2] it was below 0.01 µM.
On the same counts, the results for `COc1ccc(Nc2ccc(Cc3c[nH]c4ncnc(C5CC5)c34)c(F)n2)cn1` [Compound P-4023, [5-(4-cyclopropyl-7H-pyrrolo[2,3-d]pyrimidin-5-ylmethyl)-6-fluoro-pyridin-2-yl]-(6-methoxy-pyridin-3-yl)-amine] are 5 to 10 µM and below 0.1 µM.
On the same counts, the results for `CCOc1ccc(Nc2ccc(C(=O)c3c[nH]c4ncnc(OC)c34)c(F)n2)cn1` [Compound P-4024, [6-(6-Ethoxy-pyridin-3-ylamino)-2-fluoro-pyridin-3-yl]-(4-methoxy-7H-pyrrolo[2,3-d]pyrimidin-5-yl)-methanone] are above 10 µM and below 0.1 µM.
For `CCOc1ncnc2[nH]cc(C(=O)c3ccc(Nc4ccc(OC)nc4)nc3F)c12` [Compound P-4025, (4-Ethoxy-7H-pyrrolo[2,3-d]pyrimidin-5-yl)-[2-fluoro-6-(6-methoxy-pyridin-3-ylamino)-pyridin-3-yl]-methanone], in that order: above 10 µM and below 0.1 µM.
`CCc1ccc(Nc2ccc(Cc3c[nH]c4ncnc(C5CC5)c34)c(F)n2)cn1` [Compound P-4028, [5-(4-Cyclopropyl-7H-pyrrolo[2,3-d]pyrimidin-5-ylmethyl)-6-fluoro-pyridin-2-yl]-(6-ethyl-pyridin-3-yl)-amine]: the IC50 in assay [1] is above 10 µM; in assay [2], below 0.01 µM.
For `CCc1ccc(Nc2ccc(C(=O)c3c[nH]c4ncnc(C5CC5)c34)c(F)n2)cn1` [Compound P-4029, (4-Cyclopropyl-7H-pyrrolo[2,3-d]pyrimidin-5-yl)-[6-(6-ethyl-pyridin-3-ylamino)-2-fluoro-pyridin-3-yl]-methanone], in that order: above 10 µM and below 0.01 µM.
As to `Cc1ccc(Nc2ccc(Cc3c[nH]c4ncnc(C5CC5)c34)c(F)n2)cn1` [Compound P-4030, [5-(4-Cyclopropyl-7H-pyrrolo[2,3-d]pyrimidin-5-ylmethyl)-6-fluoro-pyridin-2-yl]-(6-methyl-pyridin-3-yl)-amine], the IC50 was above 10 µM in assay [1] and below 0.1 µM in assay [2].
For `Cc1ccc(Nc2ccc(C(=O)c3c[nH]c4ncnc(C5CC5)c34)c(F)n2)cn1` [Compound P-4031, (4-Cyclopropyl-7H-pyrrolo[2,3-d]pyrimidin-5-yl)-[2-fluoro-6-(6-methyl-pyridin-3-ylamino)-pyridin-3-yl]-methanone], in that order: below 5 µM and below 0.1 µM.
For `CCn1cc(Nc2ccc(Cc3c[nH]c4ncnc(C5CC5)c34)c(F)n2)cn1` [Compound P-4036, [5-(4-Cyclopropyl-7H-pyrrolo[2,3-d]pyrimidin-5-ylmethyl)-6-fluoro-pyridin-2-yl]-(1-ethyl-1H-pyrazol-4-yl)-amine], in that order: above 10 µM and below 0.1 µM.
Consider `CCn1cc(Nc2ccc(C(=O)c3c[nH]c4ncnc(C5CC5)c34)c(F)n2)cn1` [Compound P-4037, (4-Cyclopropyl-7H-pyrrolo[2,3-d]pyrimidin-5-yl)-[6-(1-ethyl-1H-pyrazol-4-ylamino)-2-fluoro-pyridin-3-yl]-methanone], for which the IC50 in assay [1] was above 10 µM; in assay [2], below 0.1 µM.
On the same counts, the results for `Fc1nc(NC2CCC(F)(F)CC2)ccc1Cc1c[nH]c2ncnc(NCC(F)(F)F)c12` [Compound P-4128, 5-[[6-[(4,4-difluorocyclohexyl)amino]-2-fluoro-3-pyridyl]methyl]-N-(2,2,2-trifluoroethyl)-7H-pyrrolo[2,3-d]pyrimidin-4-amine] are above 10 µM and below 1 µM.
Regarding `Fc1nc(NC2CCC(F)(F)CC2)ccc1Cc1c[nH]c2ncnc(NC3CC3)c12` [Compound P-4129, N-cyclopropyl-5-[[6-[(4,4-difluorocyclohexyl)amino]-2-fluoro-3-pyridyl]methyl]-7H-pyrrolo[2,3-d]pyrimidin-4-amine], the IC50 in assay [1] was 5 to 10 µM; in assay [2] it was below 1 µM.
For the molecule `Fc1nc(Nc2ccc(C3CC3)nc2)ccc1Cc1c[nH]c2ncnc(NCC(F)(F)F)c12` [Compound P-4130, 5-[[6-[(6-cyclopropyl-3-pyridyl)amino]-2-fluoro-3-pyridyl]methyl]-N-(2,2,2-trifluoroethyl)-7H-pyrrolo[2,3-d]pyrimidin-4-amine], the IC50 in assay [1] was above 10 µM; in assay [2], below 0.01 µM.

In general, IC50 refers to the concentration that gives 50% inhibition.
